For assay [1], the target named is PAK1 (Homo sapiens, UniProt Q13153). Nature of the assay: Additional in vitro PAK1 inhibition assay at ATP 10 uM and 1 mM. In kind it is biochemical. How it is done: (§1) Similar in vitro PAK1 and PAK-4 inhibition assays are conducted in compounds for the treatment of cancer, but under ATP concentrations of 10 uM and 1 mM.
For assay [2], the target named is PAK4 (Homo sapiens, UniProt O96013). Nature of the assay: Additional in vitro PAK-4 inhibition assay at ATP 10 uM and 1 mM. In kind it is biochemical. To be noted: 10 μM ATP; read-out: PAK4 IC50 (10 μM ATP). How it is done: as §1
PAK4, sequence (O96013 whole entry): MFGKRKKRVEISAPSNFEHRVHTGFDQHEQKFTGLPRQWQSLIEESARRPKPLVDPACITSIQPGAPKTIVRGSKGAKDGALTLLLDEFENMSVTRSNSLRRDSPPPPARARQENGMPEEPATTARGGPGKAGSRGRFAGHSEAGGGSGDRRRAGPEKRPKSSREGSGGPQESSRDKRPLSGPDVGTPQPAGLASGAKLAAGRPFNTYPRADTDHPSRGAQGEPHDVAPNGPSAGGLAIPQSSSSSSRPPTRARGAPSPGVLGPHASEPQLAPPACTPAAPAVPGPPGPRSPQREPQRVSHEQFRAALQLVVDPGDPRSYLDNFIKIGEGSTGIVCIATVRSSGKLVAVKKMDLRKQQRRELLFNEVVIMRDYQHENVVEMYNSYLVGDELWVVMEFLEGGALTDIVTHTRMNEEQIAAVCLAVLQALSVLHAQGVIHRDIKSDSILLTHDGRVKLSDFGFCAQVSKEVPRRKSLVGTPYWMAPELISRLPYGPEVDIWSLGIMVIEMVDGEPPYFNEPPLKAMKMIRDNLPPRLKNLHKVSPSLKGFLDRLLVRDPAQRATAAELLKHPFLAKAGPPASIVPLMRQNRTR
Setting [3] is: 10 μM ATP, read-out: PAK1 IC50 (10 μM ATP).
Setting [4] is: 1 mM ATP, read-out: PAK1 IC50 (1 mM ATP).

The structures appear in SMILES notation. Like-named read-outs stand apart in the source and are kept apart here.

PAK1, sequence (Q13153 whole entry): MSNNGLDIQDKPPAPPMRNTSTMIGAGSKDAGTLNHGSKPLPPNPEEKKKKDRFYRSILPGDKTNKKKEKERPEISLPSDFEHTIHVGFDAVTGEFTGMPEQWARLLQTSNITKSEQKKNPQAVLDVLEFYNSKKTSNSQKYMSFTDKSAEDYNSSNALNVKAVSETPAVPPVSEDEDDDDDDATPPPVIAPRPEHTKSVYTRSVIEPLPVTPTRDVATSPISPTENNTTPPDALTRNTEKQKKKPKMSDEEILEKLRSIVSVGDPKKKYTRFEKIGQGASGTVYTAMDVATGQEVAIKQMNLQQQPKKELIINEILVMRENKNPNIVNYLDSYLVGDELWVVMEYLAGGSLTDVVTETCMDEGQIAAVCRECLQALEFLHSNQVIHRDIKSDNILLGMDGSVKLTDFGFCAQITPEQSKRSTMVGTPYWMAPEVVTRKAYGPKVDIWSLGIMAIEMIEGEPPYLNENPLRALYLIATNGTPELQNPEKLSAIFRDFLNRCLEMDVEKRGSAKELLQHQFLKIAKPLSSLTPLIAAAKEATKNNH

The term IC50 denotes the point on the concentration scale where inhibition reaches its midpoint. For `Cc1nc(-c2ccc(-c3cc4cnc(NC5CCOCC5)nc4n(C4CCOC(C)(C)C4)c3=O)c(Cl)c2)no1` (stereo not drawn), the values for the IC50 in assay [1] (setting [3]), in assay [1] (setting [4]) and in assay [2] were below 0.05 µM, 0.5 to 5 µM and at least 5 µM, respectively.
The like results for `CCn1c(=O)c(-c2ccc(-c3noc(C)n3)cc2Cl)cc2cnc(NCc3ccccc3)nc21` were, in that order, 0.5 to 5 µM, at least 5 µM and at least 5 µM.
The like results for `Cc1nc(-c2ccc(-c3cc4cnc(NC5CCNC(=O)C5)nc4n(Cc4c(F)cccc4C(F)(F)F)c3=O)c(Cl)c2)no1` (stereo not drawn) [drawing 354] were, in that order, below 0.05 µM, 0.5 to 5 µM and at least 5 µM.
The like results for `CCn1c(=O)c(-c2ccc(-c3noc(C)n3)cc2Cl)cc2cnc(NC3CCCC3)nc21` were, in that order, 0.5 to 5 µM, at least 5 µM and 0.5 to 5 µM.
Regarding `Cc1nc(-c2ccc(-c3cc4cnc(NC5CCOCC5)nc4n(C4CCN(C5CCNCC5)C4)c3=O)c(Cl)c2)no1` (stereo not drawn), the IC50 in assay [1] (setting [3]) is 0.05 to 0.5 µM; in assay [1] (setting [4]) it was at least 5 µM; in assay [2], at least 5 µM.
With `CCn1c(=O)c(-c2ccc(-c3noc(C)n3)cc2Cl)cc2cnc(NC3CC3)nc21`, the results for the IC50 in assay [1] (setting [3]), in assay [1] (setting [4]) and in assay [2] were 0.05 to 0.5 µM, at least 5 µM and at least 5 µM, respectively.
`CCn1c(=O)c(-c2ccc(-c3noc(C)n3)cc2Cl)cc2cnc(NCCCNC(C)=O)nc21`: the IC50 in assay [1] (setting [3]) is 0.5 to 5 µM; in assay [1] (setting [4]), at least 5 µM; in assay [2] it was at least 5 µM.
Regarding `CCn1c(=O)c(-c2ccc(-c3noc(C)n3)cc2Cl)cc2cnc(NCCCO)nc21`, the IC50 in assay [1] (setting [3]) was 0.05 to 0.5 µM; in assay [1] (setting [4]), at least 5 µM; in assay [2] it was at least 5 µM.
`Cc1nc(-c2ccc(-c3cc4cnc(NC5CCOCC5)nc4n(Cc4cccc(CN)c4)c3=O)c(Cl)c2)no1` [drawing 342]: the IC50 in assay [1] (setting [3]) is below 0.05 µM; in assay [1] (setting [4]), 0.05 to 0.5 µM; in assay [2], at least 5 µM.
Consider `CCO[C@H]1COC[C@@H]1Nc1ncc2cc(-c3ccc(-c4noc(C)n4)cc3Cl)c(=O)n(CC)c2n1`, for which the figures for the IC50 in assay [1] (setting [3]), in assay [1] (setting [4]) and in assay [2] were 0.5 to 5 µM, at least 5 µM and at least 5 µM, respectively.
On to `CCn1c(=O)c(-c2ccc(-c3noc(C)n3)cc2Cl)cc2cnc(NC3CCC(=O)NC3)nc21` (stereo not drawn), for which the IC50 in assay [1] (setting [3]) is 0.5 to 5 µM; in assay [1] (setting [4]), at least 5 µM; in assay [2], at least 5 µM.
For `Cc1nc(-c2ccc(-c3cc4cnc(NC5CCOCC5)nc4n(Cc4cccc(OCCN)c4)c3=O)c(Cl)c2)no1` [drawing 344], the IC50 is below 0.05 µM in assay [1] (setting [3]), 0.5 to 5 µM in assay [1] (setting [4]) and at least 5 µM in assay [2].
`CCCCNc1ncc2cc(-c3ccc(-c4noc(C)n4)cc3Cl)c(=O)n(CC)c2n1`: the IC50 in assay [1] (setting [3]) was 0.5 to 5 µM; in assay [1] (setting [4]) it was at least 5 µM; in assay [2] it was at least 5 µM.
`CCn1c(=O)c(-c2ccc(-c3noc(C)n3)cc2Cl)cc2cnc(NCC(C)(C)O)nc21`: the IC50 in assay [1] (setting [3]) was 0.5 to 5 µM; in assay [1] (setting [4]), at least 5 µM; in assay [2], at least 5 µM.
Take `Cc1nc(-c2ccc(-c3cc4cnc(NC5CCOCC5)nc4n(C4CCN(C(=O)CN)CC4)c3=O)c(Cl)c2)no1`: the IC50 in assay [1] (setting [3]) is 0.05 to 0.5 µM; in assay [1] (setting [4]), at least 5 µM; in assay [2], at least 5 µM.
For the molecule `CCn1c(=O)c(-c2ccc(-c3noc(C)n3)cc2Cl)cc2cnc(N[C@H]3CC[C@H](N4CCN(C)CC4)CC3)nc21`, the concentration for half-maximal inhibition (IC50) in assay [1] (setting [3]) is 0.5 to 5 µM; in assay [1] (setting [4]), at least 5 µM; in assay [2], at least 5 µM.
Take `Cc1nc(-c2ccc(-c3cc4cnc(NC5CCOCC5)nc4n(Cc4ccc(CN)cc4)c3=O)c(Cl)c2)no1` [drawing 341]: the IC50 is below 0.05 µM in assay [1] (setting [3]), 0.05 to 0.5 µM in assay [1] (setting [4]) and at least 5 µM in assay [2].
The like results for `Cc1nc(-c2ccc(-c3cc4cnc(NC5CCOCC5)nc4n(CC4CCNCC4)c3=O)c(Cl)c2)no1` [drawing 340] were, in that order, below 0.05 µM, 0.5 to 5 µM and at least 5 µM.
The like results for `CCn1c(=O)c(-c2ccc(-c3noc(C)n3)cc2Cl)cc2cnc(NC(C)C)nc21` were, in that order, 0.5 to 5 µM, at least 5 µM and at least 5 µM.

Source of the values: patent US20130116263A1, “PAK INHIBITORS FOR THE TREATMENT OF CELL PROLIFERATIVE DISORDERS” (AFRAXIS, INC., priority 2011, published 2013).
